Source: patent US20240293337A1, “USE OF DOXERCALCIFEROL TO TREAT AND/OR PREVENT UTERINE FIBROIDS OR POLYCYSTIC OVARY SYNDROME” (priority 2023, published 2024)

How the values were obtained:
SW872 cells [1] = assay: SW872 immortalized adipocyte model, cell morphology and cell number after 24 h treatment; format: cell-based, human; conditions: 100 nM
Protocol: Human liposarcoma SW872 are used as an in vitro cell culture model of adipocytes to assess adipocyte proliferation. SW872 cells are purchased from (ATCC). These cells are isolated from a surgical specimen of a […] removed from a donor. The cells are cultured per the recommended guidelines. The cells are subcultured at a ratio of 1:4, resulting in a cell density of approximately 1×10^6 in T75 flasks. SW872 cells are subcultured in T75 flasks for 24 hours. Cells are then treated for 24 hours with serum free basal media as a control or doxercalciferol at 1 nM, 10 nM, or 100 nM diluted in basal media (serum-free). After the incubation period, cells are imaged and analyzed for morphology and cell count. Cells are then collected for analysis of adipogenesis-related gene expression and cell culture media are collected for analysis of obesity related cytokines.

[2] = system: Human MSC derived adipocytes; assay: MSC derived adipocyte differentiation, 14 days, morphology and oil red-O staining; format: cell-based; conditions: 100 nM
Protocol: Human mesenchymal stem cells (MSC) are used as an in vitro cell culture model of adipocyte precursors to assess adipocyte differentiation. MSC cells are purchased from (Lonza). The cells are cultured in the DMEM/F12 media containing 10% FBS. At approximately 80% confluence, the cells are trypsinized using TrypLE select enzyme (Gibco, MA) and are serially expanded. At the end of the culture expansion, MSCs are collected and centrifuged at 300×g for 5 minutes. Human MSCs are treated with doxercalciferol and are cultured in adipocyte induction medium for 14 days. Mesenchymal Adipogenesis Kit (Sigma) and manufacturer's induction protocol are used for adipocyte induction. Imaging and morphology analysis is performed on days 1, 7, 10, and 14. On day 14 when adipocyte differentiation is completed, the cells undergo oil red-O staining and are imaged for further morphology analysis.

SW872 cells [3] = assay: Adipogenesis gene expression in SW872 cells (qRT-PCR array); format: cell-based, human; conditions: 10 nM, 24 hours
Protocol: SW872 cells are subcultured in T75 flasks for 24 hours. Cells are then treated for 24 hours with serum free basal media as a control or doxercalciferol at 1 nM, 10 nM, or 100 nM diluted in basal media (serum-free). After the incubation period, cells are imaged and analyzed for morphology and cell count. Cells are then collected for analysis of adipogenesis-related gene expression and cell culture media are collected for analysis of obesity related cytokines. RNA is extracted from SW872 cells treated with doxercalciferol. RNA extraction is done using TRIzol (Invitrogen, USA) according to the manufacturer's instructions. The concentration and purity of the extracted RNA is checked using a NanoDrop spectrometer (Thermo Scientific, MA, USA). Quantitative real-time PCR (qPCR) of adipogenesis related genes in SW872 cells is performed using a RT^2 Profiler™ PCR Array Human Apidogenesis according to the manufacturer's instructions (Qiagen, Sciences Inc., MD, USA).

[4] = system: patient derived xenograft (PDX) mouse model of uterine fibroids (UF); assay: Tumor growth in patient derived xenograft (PDX) mouse model of uterine fibroids; format: in vivo, NOD/SCID mice; conditions: PDX UF mice, 300 ng/kg i.p. 3 times per week, 6 weeks
Protocol: Female NOD/SCID are housed in a vivarium for 1 week under specific pathogen-free conditions. The animal experiment protocol for this study is approved, and all animal experiments are performed in compliance with policies and guidelines for use of laboratory animals. UF samples are obtained from African-American female patients with UF (n=4). This human UF tissue is xenografted into female mice that have been hormonally supplemented with progesterone and estradiol (n=2 mice/patient). Tumor size is measured at implantation. After xenograft mice undergo intraperitoneal injection of doxercalciferol (300 ng/kg, 3 times per week) or saline for 6 weeks. Body weight is monitored weekly during doxercalciferol treatment. Six weeks after doxercalciferol treatment insulin resistance is assessed using GTT and then mice are anesthetized and blood is collected to measure liver enzyme and AMH levels, ovary tissue is removed for histological analysis, total RNA is extracted for sequencing, and tumor size is measured with a digital caliper.

[5] = system: patient derived xenograft (PDX) mouse model of uterine fibroids (UF); assay: Differentially expressed gene (DEG) analysis by RNA sequencing in PDX UFs; format: in vivo, NOD/SCID mice; conditions: UFs treated with doxercalciferol compared to control
Protocol: (§1) After xenograft mice undergo intraperitoneal injection of doxercalciferol (300 ng/kg, 3 times per week) or saline for 6 weeks. Body weight is monitored weekly during doxercalciferol treatment. Six weeks after doxercalciferol treatment insulin resistance is assessed using GTT and then mice are anesthetized and blood is collected to measure liver enzyme and AMH levels, ovary tissue is removed for histological analysis, total RNA is extracted for sequencing, and tumor size is measured with a digital caliper.
Total RNA is extracted from PDX mice after doxercalciferol treatment. EdgeR is used to identify DEGs with p-values of (p)<0.01). GO and KEGG enrichment analysis are performed to determine the implication of the DEGs at the biologically functional level.

ovary = assay: Ovarian follicle counts in PDX UF mice (H&E histology); format: in vivo, NOD/SCID mice; conditions: vs untreated control
Protocol: as §1
Ovary tissue is collected and fixed in 4% paraformaldehyde. Tissue sections are stained with hematoxylin-eosin (H&E). Histological analyses are performed.

[6] = Serum chemistry in PCOS mice; format: in vivo, C57BL/6 mice; conditions: after five weeks of treatment, most of the serum levels

C=C1/C(=C\C=C2/CCC[C@]3(C)[C@@H]([C@H](C)/C=C/[C@H](C)C(C)C)CC[C@@H]23)C[C@@H](O)C[C@@H]1O [doxercalciferol]
cell morphology (SW872 cells [1]): most cells being dead
cell number (SW872 cells [1]; vs control): significant reduction in cells
Oil red-O staining, presence of adipocytes ([2]; 1 nM, 10 nM, day 14): presence of adipocytes in all treatment groups except the 100 nM group
cell morphology ([2]; 14 days): most cells dead
CEBP relative gene expression (SW872 cells [3]): significantly upregulated
CEBPD relative gene expression (SW872 cells [3]): significantly upregulated
PRDM16 relative gene expression (SW872 cells [3]): significantly downregulated
RXRA relative gene expression (SW872 cells [3]): significantly upregulated
SREBF1 relative gene expression (SW872 cells [3]): significantly downregulated
WNT1 relative gene expression (SW872 cells [3]): significantly downregulated
WNT10B relative gene expression (SW872 cells [3]): significantly downregulated
expression of most adipogenesis genes (SW872 cells [3]; not significant for most genes): downregulated
tumor growth (significant reduction, down to) [4]: 55.6%
ADRA1B fold change (FC) [5]: −1.81
ARGI fold change (FC) [5]: −1.42
DUSP1 fold change [FC] [5]: 1.05
IL24 fold change (FC) [5]: 1.55
number of DEGs ([5]; RNA sequencing): 410
number of down-regulated DEGs ([5]; RNA sequencing): 252
number of up-regulated DEGs ([5]; RNA sequencing): 158
number of follicles at the primordial, primary, secondary, or preantral phases (ovary): does not significantly affect
total number of follicles in the ovary (ovary): does not significantly affect
serum levels vs reference range of C57BL/6 mice [6]: overlap with the reference range
